The record followed here is patent US4264622A, “Tetrahydro-2H-benzo[c]pyrroles to inhibit prolactin secretion” (Eli Lilly and Company, priority 1980, dated 1981).

Structures can show the parent of a compound that is named as a salt.

For this data set, the system named is mouse. Nature of the data set: toxicity on intraperitoneal dosage in the mouse. Type of data set: in vivo. On the procedure: In using the compounds of this invention to inhibit prolactin secretion or to treat Parkinson's syndrome or for other pharmacologic action, a pharmaceutically active compound according to Formula I above, or a salt thereof with a pharmaceutically-acceptable acid, is administered to a subject suffering from Parkinsonism or in need of having their prolactin level reduced in an amount effective to alleviate some of the symptoms of Parkinsonism or to reduce an elevated prolactin level. Oral administration is preferred. If parenteral administration is used, the injection is preferably by the subcutaneous route using an appropriate pharmaceutical formulation. […] In particular, with intravenous or intramuscular administration, a water soluble pharmaceutically-acceptable salt is employed. For oral administration, a pharmaceutically active compound according to Formula I either as the free base or in the form of a salt thereof can also be mixed with standard pharmaceutical excipients and loaded into empty telescoping gelatin capsules or pressed into tablets. The oral dosage range is from about 0.01 to 10 mg/kg of mammalian weight and the parenteral dose range from about 0.0025 to 2.5 mg/kg of mammalian weight.

For the molecule `CCCN(CCC)C1CCc2c[nH]cc2C1` (racemic) [dl-5-di-n-propylamino-4,5,6,7-tetrahydro-2H-benzo[c]pyrrole maleate], the deaths result (10-30 mg/kg) is reported as “no deaths”. Further, where the note is “100-300 mg/kg”, the “deaths (fatal dosages)” value was “fatal”.
